Experimental data from patent US20260176290A1, “INHIBITORS OF KRAS(G12D)” (Ranok Therapeutics (Hangzhou) Co. Ltd., priority 2022, published 2026).

Assay: in vivo
Conditions: male, CD-1, mouse, po
Experimental: CD-1 mice were randomly assigned to 6 groups with 3 male mice in each compound group. […] Compounds were orally administered (PO) in a single dose to each mouse in its group. Blood samples were taken within 72 hours. Bioavailability (F %) was determined and by liquid chromatography-mass spectrometry (LC-MS/MS).

| Structure (SMILES) | bioavailability [%] |
| --- | --- |
| C#Cc1c(F)ccc2cc(N)cc(-c3nc(OC)c4c(N5CC6CCC(C5)N6)nc(OCC5(CN6CC7CC7C6)CC5)nc4c3F)c12 (stereo not drawn) [Example 184] | 5.75 |
| C#Cc1c(F)ccc2cc(O)cc(-c3ncc4c(N5CC6CCC(C5)N6)nc(OCC5(CN6CC7C(F)C7C6)CC5)nc4c3F)c12 (stereo not drawn) [Example 149] | 12.9 |
| COc1nc(-c2cc(N)cc(Cl)c2C(F)(F)F)c(F)c2nc(OCC3(CN4CC5CC5C4)CC3)nc(N3CC4CCC(C3)N4)c12 (stereo not drawn) [Example 165] | 13.8 |
| [2H]C([2H])([2H])Oc1nc(-c2cc(O)cc3ccc(F)c(C#C)c23)c(F)c2nc(OCC3(CN4CC5C(F)C5C4)CC3)nc(N3CC4CCC(C3)N4)c12 (stereo not drawn) [Example 167] | 7.14 |
| C#Cc1cccc2cc(O)cc(-c3ncc4c(N5CC6CCC(C5)N6)nc(OCC5(CN6CC7C(C6)C7(F)F)CC5)nc4c3F)c12 (stereo not drawn) [Example 100] | 1.7 |
| C#Cc1c(F)ccc2cc(O)cc(-c3nc(OC)c4c(N5CC6CCC(C5)N6)nc(OCC5(CN6CC7C(F)C7C6)CC5)nc4c3F)c12 (stereo not drawn) [Example 155] | 8.03 |
| C#Cc1c(F)ccc2cc(O)cc(-c3nc(OC)c4c(N5CC6CCC(C5)N6C(=O)OCOC(=O)C(C)C)nc(OCC5(CN6CC7CC7C6)CC5)nc4c3F)c12 (stereo not drawn) [Example 148] | 6.8 |
| C#Cc1c(F)ccc2cc(O)cc(-c3nc(OC)c4c(N5CC6CCC(C5)N6C(=O)OC(C)OC(C)=O)nc(OCC5(CN6CC7CC7C6)CC5)nc4c3F)c12 (stereo not drawn) [Example 146] | 8.3 |
| C#Cc1c(F)ccc2c(F)c(O)cc(-c3nc(OC)c4c(N5CC6CCC(C5)N6)nc(OCC5(CN6CC7CC7C6)CC5)nc4c3F)c12 (stereo not drawn) [Example 168] | 13.6 |
